# Patent US10710980B2, “Aminopyridine derivatives and their use as selective ALK-2 inhibitors” (priority 2016, dated 2020)
# Assays:
# [1] = molecular target: T1, wild-type ALK2 (aa172-499) (Homo sapiens (Human), UniProt Q04771); test: ADPGlo biochemical autophosphorylation assay, ALK2; details: 15 μm ATP, 60 min at 32° C.
# ALK3 (aa198-525) = ALK3 (aa198-525) (Homo sapiens (Human), UniProt P36894); test: ADPGlo biochemical autophosphorylation assay, ALK3; details: 15 μm ATP, 60 min at 32° C.
# [2] = molecular target: T1, wild-type ALK2 (aa172-499); test: Caliper biochemical peptide phosphorylation assay, ALK2; details: 15 μm ATP, 60 min at 30° C.; read-out: ALK2 EPK (IC50)
# ALK1 (aa166-493) = ALK1 (aa166-493) (Homo sapiens (Human), UniProt P37023); test: Caliper biochemical peptide phosphorylation assay, ALK1; details: 15 μm ATP, 60 min at 30° C.; read-out: ALK1 EPK (IC50)
# ALK5 (aa162-503) = ALK5 (aa162-503) (Homo sapiens (Human), UniProt P36897); test: Caliper biochemical peptide phosphorylation assay, ALK5; details: 15 μm ATP, 60 min at 30° C.; read-out: ALK5 EPK (IC50)
# ALK6 (aa168-495) = ALK6 (aa168-495) (Homo sapiens (Human), UniProt O00238); test: Caliper biochemical peptide phosphorylation assay, ALK6; details: 15 μm ATP, 60 min at 30° C.; read-out: ALK6 EPK (IC50)
# [3] = test system: BMP response element (BRE) luciferase reporter in HuH7 cells, BMP6 stimulated; test: BMP signaling reporter gene assay; assay type: cell-based; details: Homo sapiens, Huh-7; HuH7 BRE-luciferase, BMP6 100 ng/ml, 5 hours; read-out: MSD BMP RGA IC50
# Sequence of ALK3 (aa198-525) (P36894 198-525): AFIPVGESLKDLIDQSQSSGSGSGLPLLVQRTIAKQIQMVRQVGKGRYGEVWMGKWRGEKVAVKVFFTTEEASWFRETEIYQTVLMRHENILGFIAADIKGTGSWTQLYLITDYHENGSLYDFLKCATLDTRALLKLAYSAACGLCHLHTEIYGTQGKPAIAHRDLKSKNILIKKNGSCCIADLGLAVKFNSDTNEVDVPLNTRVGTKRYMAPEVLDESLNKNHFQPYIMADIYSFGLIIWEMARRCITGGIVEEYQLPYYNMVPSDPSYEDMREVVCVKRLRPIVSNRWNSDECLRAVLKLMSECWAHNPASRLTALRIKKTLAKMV
# Sequence of ALK5 (aa162-503) (P36897 162-503): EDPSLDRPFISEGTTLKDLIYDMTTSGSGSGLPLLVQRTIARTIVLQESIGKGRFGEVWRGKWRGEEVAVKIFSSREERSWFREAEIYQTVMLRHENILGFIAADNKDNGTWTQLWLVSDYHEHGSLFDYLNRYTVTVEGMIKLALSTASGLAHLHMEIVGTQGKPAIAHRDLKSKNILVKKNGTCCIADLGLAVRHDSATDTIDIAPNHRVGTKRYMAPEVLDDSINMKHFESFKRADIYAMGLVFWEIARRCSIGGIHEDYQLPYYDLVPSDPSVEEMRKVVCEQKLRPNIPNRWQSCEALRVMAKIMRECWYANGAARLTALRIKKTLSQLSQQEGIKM
# Sequence of ALK1 (aa166-493) (P37023 166-493): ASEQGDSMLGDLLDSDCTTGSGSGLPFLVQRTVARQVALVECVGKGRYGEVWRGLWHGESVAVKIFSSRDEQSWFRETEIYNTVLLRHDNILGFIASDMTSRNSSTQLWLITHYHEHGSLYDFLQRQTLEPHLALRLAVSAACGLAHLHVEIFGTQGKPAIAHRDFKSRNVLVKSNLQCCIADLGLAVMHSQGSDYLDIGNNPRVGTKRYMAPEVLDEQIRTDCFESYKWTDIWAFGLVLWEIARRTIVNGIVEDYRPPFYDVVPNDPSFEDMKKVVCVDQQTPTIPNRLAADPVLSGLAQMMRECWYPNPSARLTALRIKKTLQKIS
# T1 sequence (Q04771 172-499): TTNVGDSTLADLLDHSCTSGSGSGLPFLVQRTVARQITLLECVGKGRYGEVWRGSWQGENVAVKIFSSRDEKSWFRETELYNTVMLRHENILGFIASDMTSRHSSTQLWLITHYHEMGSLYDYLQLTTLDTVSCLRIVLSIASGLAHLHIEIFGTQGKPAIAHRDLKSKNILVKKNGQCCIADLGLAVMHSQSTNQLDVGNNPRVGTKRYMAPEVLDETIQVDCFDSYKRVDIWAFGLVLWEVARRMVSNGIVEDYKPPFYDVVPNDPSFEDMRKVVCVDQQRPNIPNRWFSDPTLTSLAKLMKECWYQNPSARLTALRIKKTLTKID
# Sequence of ALK6 (aa168-495) (O00238 168-495): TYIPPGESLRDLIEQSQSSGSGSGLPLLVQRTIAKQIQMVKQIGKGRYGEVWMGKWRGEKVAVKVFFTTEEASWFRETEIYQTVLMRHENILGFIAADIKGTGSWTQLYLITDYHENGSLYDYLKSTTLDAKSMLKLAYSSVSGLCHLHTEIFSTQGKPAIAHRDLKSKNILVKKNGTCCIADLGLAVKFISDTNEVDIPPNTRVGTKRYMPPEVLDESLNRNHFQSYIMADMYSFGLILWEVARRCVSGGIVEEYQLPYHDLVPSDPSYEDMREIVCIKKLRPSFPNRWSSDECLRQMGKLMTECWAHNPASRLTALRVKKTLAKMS
Compound,IC50 [1],IC50 (ALK3 (aa198-525)),IC50 [2],IC50 (ALK1 (aa166-493)),IC50 (ALK5 (aa162-503)),IC50 (ALK6 (aa168-495)),IC50 [3]
"Nc1ncc(-c2ccc([C@@]34C[C@@H]3CN(C(CF)CF)C4)cc2)cc1C(=O)N[C@H]1CC[C@H](O)CC1 [Example 6, 2-amino-5-(4-((1R,5S)-3-(1,3-difluoropropan-2-yl)-3-azabicyclo[3.1.0]hexan-1-yl)phenyl)-N-((1r,4R)-4-hydroxycyclohexyl)nicotinamide]",18 nM,940 nM,15 nM,220 nM,10000 nM,5200 nM,870 nM
"COCCN1C[C@@H]2C[C@]2(c2ccc(-c3cnc(N)c(C(=O)NC45CCC(O)(CC4)CC5)c3)cc2)C1 [Example 7, 2-amino-N-(4-hydroxybicyclo[2.2.2]octan-1-yl)-5-(4-((1S,5R)-3-(2-methoxyethyl)-3-azabicyclo[3.1.0]hexan-1-yl)phenyl)nicotinamide]",12 nM,875 nM,12 nM,195 nM,5450 nM,2400 nM,51 nM
"CC(C)N1C[C@@H]2C[C@]2(c2ccc(-c3cnc(N)c(C(=O)N[C@H]4CC[C@H](O)CC4)c3)cc2)C1 [Example 9, 2-amino-N-((1r,4S)-4-hydroxycyclohexyl)-5-(4-((1S,5R)-3-isopropyl-3-azabicyclo[3.1.0]hexan-1-yl)phenyl)nicotinamide]",11 nM,1600 nM,11 nM,127 nM,3130 nM,3130 nM,43 nM
"Nc1ncc(-c2ccc([C@]34C[C@H]3CN(CCF)C4)cc2)cc1C(=O)N[C@H]1CC[C@H](O)CC1 [Example 11, 2-amino-5-(4-((1S,5R)-3-(2-fluoroethyl)-3-azabicyclo[3.1.0]hexan-1-yl)phenyl)-N-((1r,4S)-4-hydroxycyclohexyl)nicotinamide]",9 nM,1100 nM,12 nM,150 nM,2400 nM,3900 nM,51 nM
"Nc1ncc(-c2ccc([C@]34C[C@H]3CN(CCN3CCOCC3)C4)cc2)cc1C(=O)N[C@H]1CC[C@H](O)CC1 [Example 13, 2-amino-N-((1r,4S)-4-hydroxycyclohexyl)-5-(4-((1S,5R)-3-(2-morpholinoethyl)-3-azabicyclo[3.1.0]hexan-1-yl)phenyl)nicotinamide]",8 nM,1400 nM,13 nM,140 nM,3100 nM,3000 nM,78 nM

# Further compounds by falling IC50 [1], results first:
IC50 [1],IC50 (ALK3 (aa198-525)),IC50 [2],IC50 (ALK1 (aa166-493)),IC50 (ALK5 (aa162-503)),IC50 (ALK6 (aa168-495)),IC50 [3],Compound
29 nM,967 nM,20 nM,370 nM,3770 nM,2230 nM,74 nM,"Nc1ncc(-c2ccc([C@@]34C[C@@H]3CN(CCN3CCOCC3)C4)cc2)cc1C(=O)NC12CCC(O)(CC1)CC2 [Example 15, 2-amino-N-(4-hydroxybicyclo[2.2.2]octan-1-yl)-5-(4-((1R,5S)-3-(2-morpholinoethyl)-3-azabicyclo[3.1.0]hexan-1-yl)phenyl)nicotinamide]"
13 nM,1900 nM,12 nM,220 nM,4000 nM,5000 nM,69 nM,"CC(C)N1CCN(c2ccc(-c3cnc(N)c(C(=O)N[C@H]4CC[C@H](O)CC4)c3)c(F)c2)CC1 [Example 8, 2-amino-5-(2-fluoro-4-(4-isopropylpiperazin-1-yl)phenyl)-N-((1r,4r)-4-hydroxycyclohexyl)nicotinamide]"
11 nM,1400 nM,11 nM,89 nM,2600 nM,2500 nM,61 nM,"Nc1ncc(-c2ccc([C@@]34C[C@@H]3CN(CCN3CCOCC3)C4)cc2)cc1C(=O)N[C@H]1CC[C@H](O)CC1 [Example 10, 2-amino-N-((1r,4R)-4-hydroxycyclohexyl)-5-(4-((1R,5S)-3-(2-morpholinoethyl)-3-azabicyclo[3.1.0]hexan-1-yl)phenyl)nicotinamide]"
